From article PMC10481938, “Discovery of new Schistosoma mansoni aspartyl protease inhibitors by structure-based virtual screening” (Memórias do Instituto Oswaldo Cruz, 2023)

Columns and labels:
porcine pepsin = biological target: T1, porcine pepsin (Sus scrofa, UniProt P00791); experiment: Specificity assay toward porcine pepsin; type: biochemical; settings: for inhibition at 10 µM: 10 μM of compound, average of triplicate of single experiment, CV% in parentheses, read-out: Enzymatic activity inhibition (%) Pepsin; for IC50: porcine pepsin, 95% confidence interval in parentheses
T1 construct: purchased Difco 0151-17 / 215110
T1 sequence (P00791 60-385): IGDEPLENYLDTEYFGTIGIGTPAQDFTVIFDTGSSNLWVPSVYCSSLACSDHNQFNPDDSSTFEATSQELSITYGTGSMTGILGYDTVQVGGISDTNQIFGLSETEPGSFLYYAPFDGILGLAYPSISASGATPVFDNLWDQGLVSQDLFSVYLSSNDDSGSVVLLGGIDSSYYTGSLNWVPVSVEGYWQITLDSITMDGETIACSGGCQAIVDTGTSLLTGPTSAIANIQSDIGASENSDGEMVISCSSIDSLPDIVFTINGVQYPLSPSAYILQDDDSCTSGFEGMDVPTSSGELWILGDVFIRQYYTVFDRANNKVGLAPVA
Description: (§1) SmCD1 enzymatic assay - Initially, 2.5 μg of SmCD1 was added to a reaction medium containing 50 mM sodium acetate buffer with 50 mM NaCl at pH 3.5. […] After incubation, to start the reaction, 10 μM of the substrate octapeptide fluorescent (FRET) Abz-AIAF/FSRQ-EDDnp (102023-1, GenOne) was added to the medium. The substrate hydrolysis reaction product was continuously detected (λex = 310 nm and λem = 420 nm), using a Flex Station III microplate reader (Molecular Devices), during the initial 10 min of the reaction.
(§2) Specificity assays toward mammalian proteases - For recombinant BtCD and porcine pepsin, the same protocol described above for SmCD1 was followed, except for 10 μg of BtCD or 5 μg of pepsin were added.
The IC50 values were determined by fitting SmCD1 activity data into the 4-parameter logistic equation.

[1] = tested on: aspartic protease activity (porcine pepsin, SmCD1, AWAE); experiment: Aspartic protease inhibition screening of 50 putative hits (hit criterion); type: biochemical; settings: 10 µM, SmCD1 or AWAE
Description: as §1
(§3) All enzymatic assays in this work were performed as described above, and repeated at least three times, each condition in triplicate. In tests involving screening of compounds, the percentage of inhibition of enzymatic activity was calculated considering the mean of the negative control as 100% activity.
(§4) AWAE aspartic protease activity assay - For assaying the aspartyl protease activity present in the AWAE, the same protocol described above for SmCD1 was followed, except for 20 µg of total proteins present in AWAE were added instead of the recombinant SmCD1 enzyme. Additionally, 5 µM of E-64, an inhibitor of cysteinyl proteases, was added to prevent enzymes of this class present in the AWAE[15] to also contribute to substrate hydrolysis on the acidic pH of the assay.
as §2
The AWAE assay captures the combined activities of all SmAPs present in schistosome adult worms, while excluding the concurrent cysteinyl protease activity, due the addition of the broad-spectrum E-64 inhibitor.

[2] = tested on: adult worm aqueous extract (AWAE) aspartic protease activity; experiment: AWAE aspartic protease activity assay; type: biochemical, Schistosoma mansoni; settings: for Enzymatic activity inhibition (%) AWAE: 10 μM of compound, average of triplicate of single experiment, CV% in parentheses; for IC50: aspartic protease activity of adult worm aqueous extract, with 5 µM E-64, 95% confidence interval in parentheses
Description: Preparation of adult worm aqueous extract (AWAE) - The extract was prepared from the homogenisation of 1 mL of worms, containing both male and female, in 5 mL of phosphate buffered saline (PBS) + 1% CHAPS, at pH 7.4, using a Turrax disperser. This volume of parasites is roughly equivalent to 20 adult parasites. The homogenate was centrifuged at 20,000 g for 1 hour at 4 °C, and the supernatant stored at -80 °C. An aliquot was used for the protein dosing by the Lowry method (DC^TM protein assay - BIO-RAD).
[…] In tests involving screening of compounds, the percentage of inhibition of enzymatic activity was calculated considering the mean of the negative control as 100% activity.
as §4
(§5) Determination of IC 50 values - For IC50 (inhibitor concentration in which the enzymatic activity is reduced by 50%) determination assays, serial dilutions of the inhibitors were performed, ranging from 1 µM to 500 µM. The IC50 values were determined by fitting SmCD1 activity data into the 4-parameter logistic equation.

[3] = biological target: recombinant Schistosoma mansoni cathepsin D-like aspartyl protease 1 (SmCD1) (Schistosoma mansoni, UniProt P91802); experiment: SmCD1 enzymatic assay (FRET substrate Abz-AIAF/FSRQ-EDDnp); type: biochemical; settings: for inhibition at 10 µM: read-out: Enzymatic activity inhibition (%) SmCD1; for IC50: recombinant SmCD1, pH 3.5, 95% confidence interval in parentheses; for Binding efficiency index (BEI): BEI = pIC50/MW(kDa), from SmCD1 IC50
recombinant Schistosoma mansoni cathepsin D-like aspartyl protease 1 (SmCD1), sequence (P91802 entry or part of it): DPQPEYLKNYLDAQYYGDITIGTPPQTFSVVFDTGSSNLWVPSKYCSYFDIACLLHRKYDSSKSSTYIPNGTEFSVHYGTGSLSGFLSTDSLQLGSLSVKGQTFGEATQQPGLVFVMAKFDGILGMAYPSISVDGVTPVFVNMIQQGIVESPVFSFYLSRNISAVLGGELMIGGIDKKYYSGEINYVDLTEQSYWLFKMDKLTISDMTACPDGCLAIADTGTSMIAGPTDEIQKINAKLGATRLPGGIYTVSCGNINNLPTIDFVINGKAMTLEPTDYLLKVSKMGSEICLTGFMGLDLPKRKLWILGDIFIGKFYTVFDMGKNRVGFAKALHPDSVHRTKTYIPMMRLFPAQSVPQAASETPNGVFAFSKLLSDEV
Description: SmCD1 cloning, expression and purification - Expression of the recombinant enzyme was previously performed by our group[14] by transfection of the vector with recombinant proSmCD1 gene (proSmCD1r) into culture bottles containing human embryonic kidney (HEK293) cells. After an incubation period of three to five days, the culture medium of the HEK293 cells was collected, filtered, and used for the purification of the recombinant protein. A HisTrap FF column in-tandem with a HiLoad 16/60 Superdex column, connected to an Äkta Xpress system were used for the purification of the protein.
as §1, §3, §5

adult S. mansoni worms = experiment: Schistosoma mansoni adult worms ex vivo motility assay; type: cell-based; settings: 10 µM; for effect on female worms motility: late incubation times (48 or 72 h), female adult worms; for killing of adult worms ex vivo (judged by worm motility): up to 72 h, male and female adult worms
Description: Schistosoma mansoni adult worms ex vivo assay - The effect of 10 µM of the test compounds or PZQ (positive control) on adult S. mansoni worms motility for up to 72 h of incubation at 37 °C and 5% CO2 was evaluated by a high content assay previously developed by our group.[50] Image analysis was carried out in a customised pipeline of the open-source Cellprofiler software v. 4.2.1[51] and consisted of quantifying parasites area (Area measurement of MeasureObjectSizeShape module) and its displacement over pairs of consecutive images (false negative rate measurement of MeasureObjectOverlap module). […] The effects of the experimental treatments on parasites motility were estimated from this model by the integrated nested laplace approximation (INLA) method available in INLA package of R (https://www.r-inla.org). The results were expressed as percentual relative motility considering the estimated effect of the negative control group (0.2% DMSO) for each incubation time as 100%.

WSS-1 cells = experiment: Cytotoxicity assay on human WSS-1 cells (resazurin); type: cell-based; settings: 48 h
Description: Cytotoxicity assays on human WSS-1 cells - The cytotoxicity of compounds 5, 19 and 50 was evaluated against normal epithelial cells derived from human kidney (WSS-1, ATCC™ CRL-2029). Cells were seeded in 96-well plates, at 5x10^4 cells/mL, in DMEM high glucose medium supplemented with 10% foetal bovine serum (FBS). After adherence period of 24 h, at 37 °C and 5% CO2, the cells were treated with compounds at 10 µM or 100 μM concentrations and incubated for 44 h. After this time, resazurin solution was added to cells culture, at a final concentration of 0.01 mg/mL. The cells returned to the incubator for another 4 h to complete 48 h total incubation time.[50]
Fluorescence readings of resorufin (λex = 560 nm, λem = 590 nm) were taken immediately (F0) and 4 hours (F4) after resazurin addition, using Flex Station III. The percentage of viable cells at the end of the experiment, that is, after compounds exposure for 48h, was calculated as follows: […]
<mml:math><mml:mi>V</mml:mi><mml:mi>i</mml:mi><mml:mi>a</mml:mi><mml:mi>b</mml:mi><mml:mi>l</mml:mi><mml:mi>e</mml:mi><mml:mi> </mml:mi><mml:mi>c</mml:mi><mml:mi>e</mml:mi><mml:mi>l</mml:mi><mml:mi>l</mml:mi><mml:mi>s</mml:mi><mml:mo>=</mml:mo><mml:mfrac><mml:mrow><mml:mi>F</mml:mi><mml:mn>4</mml:mn><mml:mo>-</mml:mo><mml:mi>F</mml:mi><mml:mn>0</mml:mn><mml:mi mathvariant="normal"> </mml:mi><mml:mi mathvariant="normal">t</mml:mi><mml:mi mathvariant="normal">r</mml:mi><mml:mi mathvariant="normal">e</mml:mi><mml:mi mathvariant="normal">a</mml:mi><mml:mi mathvariant="normal">t</mml:mi><mml:mi mathvariant="normal">e</mml:mi><mml:mi mathvariant="normal">d</mml:mi></mml:mrow><mml:mrow><mml:mi>F</mml:mi><mml:mn>4</mml:mn><mml:mo>-</mml:mo><mml:mi>F</mml:mi><mml:mn>0</mml:mn><mml:mi mathvariant="normal"> </mml:mi><mml:mi mathvariant="normal">c</mml:mi><mml:mi mathvariant="normal">o</mml:mi><mml:mi mathvariant="normal">n</mml:mi><mml:mi mathvariant="normal">t</mml:mi><mml:mi mathvariant="normal">r</mml:mi><mml:mi mathvariant="normal">o</mml:mi><mml:mi mathvariant="normal">l</mml:mi></mml:mrow></mml:mfrac><mml:mi mathvariant="normal"> </mml:mi><mml:mi mathvariant="normal">x</mml:mi><mml:mi mathvariant="normal"> </mml:mi><mml:mn>100</mml:mn><mml:mi mathvariant="normal"> </mml:mi></mml:math>

[4] = biological target: T2, bovine cathepsin D (BtCD) (Bos taurus, UniProt P80209); experiment: Specificity assay toward bovine cathepsin D (BtCD); type: biochemical
T2 construct: purchased Sigma-Aldrich C3138
T2 sequence (P80209 45-390): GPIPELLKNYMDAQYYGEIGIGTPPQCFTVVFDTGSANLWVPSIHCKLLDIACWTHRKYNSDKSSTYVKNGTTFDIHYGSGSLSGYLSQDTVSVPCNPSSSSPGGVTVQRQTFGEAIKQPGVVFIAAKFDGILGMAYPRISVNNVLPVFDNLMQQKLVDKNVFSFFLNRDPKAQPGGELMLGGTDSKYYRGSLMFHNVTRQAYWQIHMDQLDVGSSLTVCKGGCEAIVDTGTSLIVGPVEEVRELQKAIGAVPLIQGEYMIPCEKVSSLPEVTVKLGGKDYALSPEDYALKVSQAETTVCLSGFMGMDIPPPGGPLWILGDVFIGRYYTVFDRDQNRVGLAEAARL
Description: as §1, §2

[5] = up to tested concentration 500 μM

Row | Compound | inhibition at 10 µM (porcine pepsin) | IC50 (porcine pepsin) | inhibition of any of the aspartic protease activity (considered active) [1] | Enzymatic activity inhibition (%) AWAE [2] | IC50 [2] | inhibition at 10 µM [3] | IC50 [3] | effect on female worms motility (adult S. mansoni worms) | killing of adult worms ex vivo (judged by worm motility) (adult S. mansoni worms) | inhibition against pepsin (porcine pepsin; [5]) | cytotoxicity against WSS-1 cells (WSS-1 cells; 10 µM) | decrease of WSS-1 cell viability (WSS-1 cells; 100 µM) | inhibition against SmCD1 [3, 5] | cytotoxicity against WSS-1 cells (WSS-1 cells; up to 100 µM) | inhibition at 500 µM ([4]; highest concentration evaluated, 500 μM (solubility limitation)) | IC50 ([4]; inferred from less than 50% inhibition at 500 μM) | Binding efficiency index (BEI) [3]
1 | Cc1ccc(C(C)(C)C)c(OCCCNCCN)c1 [Compound 12] | -3.5% | 231 µM | ≥ 25% | 32.0 (11) % | 315 µM | -10.5% | > 500 µM | – | – | – | – | – | – | – | – | – | –
2 | N=C(Nc1ccccc1)Nc1nc(=O)cc(CSc2nc3ccccc3s2)[nH]1 [Compound 32] | 34.7% | 72.5 µM | ≥ 25% | – | > 500 µM | 12.2% | > 500 µM | – | – | – | – | – | – | – | – | – | –
3 | Fc1ccc(-c2ccc(CNCCOc3ccccn3)o2)cc1Cl [Compound 50] | 10.5% | > 500 µM | ≥ 25% | 34.5 (8) % | 77.7 µM | 3.4% | > 500 µM | slight decrease | nor could kill adult worms | not showing significant inhibition | neither cytotoxic and safe | more than 90% | not showing significant inhibition | – | – | – | –
4 | Cc1cccc(NS(=O)(=O)c2ccc3[nH]c(=O)c(=O)[nH]c3c2)c1 [Compound 5, 2,3-dioxo-N-(m-tolyl)-1,2,3,4-tetrahydroquinoxaline-6-sulfonamide] | 44.2% | 92.6 µM | ≥ 25% | 23.0 (14) % | 135 µM | 24.3% | 83.6 µM | slight decrease | nor could kill adult worms | – | neither cytotoxic | – | – | non-toxic | ≤ 45% | > 500 µM | 12.3
5 | O=C(CSc1nc2cc([N+](=O)[O-])ccc2[nH]1)Nc1ccc(F)c(F)c1 [Compound 1] | 5.6% | > 500 µM | ≥ 25% | – | > 500 µM | 0.4% | > 500 µM | – | – | – | – | – | – | – | – | – | –
6 | pepstatin A [reference compound] | – | – | – | 98.7 (7) % | – | – | – | – | – | – | – | – | – | – | – | – | –
7 | Cc1cccc(NC(=O)CSc2ncnc3sc4c(c23)CCC(C)C4)c1 (centres unmarked) [Compound 19, 2-((7-methyl-5,6,7,8-tetrahydrobenzo[4,5]thieno[2,3-d]pyrimidin-4-yl)thio)-N-(m-tolyl)acetamide] | 42.4% | 23.1 µM | ≥ 25% | 9.20 (12) % | > 500 µM | -15.3% | 102 µM | – | nor could kill adult worms | – | neither cytotoxic | – | – | non-toxic | – | – | 10.4
8 | CCn1c2ccccc2c2cc(NC(=O)CSC3=C(C#N)C(c4ccccc4F)CC(=O)N3)ccc21 (centres unmarked) [Compound 22] | 25.4% | 38 µM | ≥ 25% | 16.0 (15) % | > 500 µM | 1.8% | > 500 µM | – | – | – | – | – | – | – | – | – | –
